{"source": "patent US20250297015A1", "about": "“DRUG CONDITIONING REGIMEN FOR SICKLE CELL DISEASE” (NEW YORK BLOOD CENTER, INC., priority 2022, published 2025)", "type_in_all_cases": "in vivo", "key": {"[1]": {"system": "peripheral blood inflammatory markers", "experiment": "Peripheral blood inflammatory markers (aged neutrophils, sVCAM-1, P-selectin, E-selectin) in SCD mouse model", "procedure": "(§1) This study uses a SCD mouse model, SS Townes mice, to evaluate the effects of GBT-1118, the murine analog of voxelotor, to mobilize hematopoietic progenitor cells (HPC). GBT-1118 (approximately 16 mg/mouse/day) was administered via chow (4 grams of GBT-1118 per kg of chow) daily for a month. The mice were then administered a single dose of plerixafor (10 mg/kg) via subcutaneous injection. […] Peripheral blood was collected in all groups prior to and two-and three-weeks post treatment with GBT-1118 (or control) to assess hemoglobin (Hgb), hematocrit (Hct), aged neutrophils, and circulating HPCs. One to two hrs after plerixafor, peripheral blood was collected for circulating HPC (LSKF) enumeration. Assay results in the groups are compared using ANOVA or Kruskal-Wallis testing.\n(§2) Also evaluated were bone marrow HPCs and hematopoietic stem cells (HSCs) with and without plerixafor and peripheral blood inflammatory markers (aged neutrophils, sVAM-1, P-selectin, and E-selectin) with and without plerixafor.\nThere is an increase in the aged neutrophil population in SCD.\nThere is evidence that SCD is associated with a chronic inflammatory state. Therefore, inflammatory markers (sVCAM-1, P-selectin, and E-selectin) in the peripheral blood of mice treated with GBT-1118 alone or with plerixafor were evaluated. […] This increase may be related to increased WBC and absolute neutrophil counts (ANC). Plasma P-selectin and E-selectin were not increased with GBT-1118 alone or with plerixafor (FIGS. 6B and 6C)."}, "[2]": {"system": "bone marrow HPCs and hematopoietic stem cells (HSCs)", "experiment": "Bone marrow HPCs and HSCs with and without plerixafor in SCD mouse model", "conditions": "SS Townes mice", "procedure": "as §1, §2\nBone marrow LSK (Lin^−Sca1^+ckit^+) is a less HSC-specific measure than bone marrow HSC (Lin^−Sca1^+ckit+CD48^−CD150^+); the markers Flt3 and CD135 are not present in bone marrow as they are in peripheral blood."}, "[3]": {"system": "peripheral blood hematopoietic progenitor cells (HPC), LSKF cells", "experiment": "Mobilization of peripheral blood hematopoietic progenitor cells (LSKF) in SCD mouse model", "procedure": "as §1\nGating with and without CD45^+ was performed due to the erythroid hyperplasia seen in SCD, where CD45^+ expression decreases along with erythroid maturation (Boulais et al. Immunity 49:627-639, 2018) and the degree of erythroid hyperplasia in each mouse was unknown. The percentage of CD45^+ cells ranged from 60-80% per sample. […] As red cell transfusion tends to decrease circulating hematopoietic stem cells (HSCs) (Tang A et al, Blood 2021), this may be due to the increased bone marrow HSCs (FIGS. 4A and 4B) spilling into peripheral blood due to residual mesenchymal stem cell dysfunction."}, "[4]": {"system": "SS Townes mice", "experiment": "Peripheral blood response (Hb, Hct, reticulocytes, WBC) to GBT-1118 in SCD mouse model", "procedure": "as §1"}}, "note": "“Also recorded” adds a separate entry of the source.", "data": [{"smiles": "O=Cc1c(O)cccc1OC[C@@H]1CCCCN1C(=O)c1cccnc1", "note": "[GBT-1118]", "values": [{"measurement": "plasma P-selectin", "setting": "[1]; GBT-1118 alone (FIG. 6B)", "value": "not increased"}, {"measurement": "plasma E-selectin", "setting": "[1]; GBT-1118 alone (FIG. 6C)", "value": "not increased"}, {"measurement": "plasma P-selectin", "setting": "[1]; GBT-1118 with plerixafor (FIG. 6B)", "value": "not increased"}, {"measurement": "plasma E-selectin", "setting": "[1]; GBT-1118 with plerixafor (FIG. 6C)", "value": "not increased"}, {"measurement": "plasma sVCAM-1", "setting": "[1]; after GBT-1118 treatment (FIG. 6A)", "value": "small but significant increase"}, {"measurement": "peripheral blood aged neutrophils (CXCR4high CD62Llow)", "setting": "[1]; post-mobilization with plerixafor, GBT-1118 versus control (FIG. 5A-B)", "value": "not statistically significant"}, {"measurement": "bone marrow HSCs, as % of Lin- cells", "setting": "[2]; GBT-1118 alone versus control (FIG. 4A)", "value": "significantly increased"}, {"measurement": "total number of bone marrow HSC per femur", "setting": "[2]; GBT-1118 versus control (FIG. 4B)", "value": "trend towards an increase; also recorded: trend towards increased"}, {"measurement": "peripheral blood LSKF cell concentration", "setting": "[3]; SS Townes mice, compared to control (FIG. 3B)", "value": "significantly increased"}, {"measurement": "percentage of peripheral blood LSKF (Lin-Sca1+ckit+Flt3-CD135-) cells mobilized", "setting": "[3]; with CD45+ gating, plerixafor mobilization, 1-2 h after plerixafor, compared to control animals (FIGS. 3A and 3C)", "value": "higher percentage"}, {"measurement": "hemoglobin (Hb)", "setting": "[4]; GBT-1118 via chow approx. 16 mg/mouse/day, peripheral blood before vs 2 and 3 weeks after treatment (FIG. 1A)", "value": "increase"}, {"measurement": "hematocrit (Hct)", "setting": "[4]; GBT-1118 via chow, before vs 2 and 3 weeks after treatment (FIG. 1B)", "value": "increase"}, {"measurement": "percentage of reticulocytes (retic %)", "setting": "[4]; GBT-1118 via chow, before vs 2 and 3 weeks after treatment (FIG. 1C)", "value": "decrease"}, {"measurement": "number of white blood cells (WBC)", "setting": "[4]; GBT-1118 via chow, before vs 2 and 3 weeks after treatment (FIG. 1D)", "value": "essentially unchanged"}]}]}
